Data taken from patent publication US20060062736A1, “Therapeutic foam” (priority 2003, published 2006).

Assay: In vitro absorption of foam/gas in fresh human venous blood
Assay type: in vitro ADME
Conditions: 0.5 ml aliquot into 20 ml stirred blood
Experimental: In vitro experiments were conducted to determine the absorption of foam made with different gases in fresh human venous blood.
A 20 ml polypropylene syringe barrel was prepared by puncturing its side wall with a relatively large hypodermic needle to make a hole approximately 1 mm in diameter. This hole was then covered by securing a piece of clear flexible vinyl sheet over it with clear adhesive tape. A small magnetic stirrer element was introduced into the syringe barrel and the plunger then replaced. 20 ml of human venous blood was then with withdrawn in the usual manner from a human subject using the specially prepared syringe fitted with a hypodermic needle.
The hypodermic needle was removed and the syringe then placed on a magnetic stirrer unit so that the magnetic element in the syringe thoroughly agitated the blood. […]
The needle of the 0.5 ml syringe was then introduced through the vinyl sheet on the side wall of the 20 ml syringe. […] It was determined that a distance of 45 intervals on this scale corresponded to an internal volume of in the manometer tubing of approximately 0.5 ml. […]
In this experiment, the air foam test was only observed for a few minutes after tF. However, further experiments have been conducted by the inventors, the results of which are not formally recorded here, involving foam with a percentage of nitrogen. […]

Absorbed volume at tF 0.5(y − z)/(y − x): 0.46 mL
tF (time at which blood column stopped moving): 140 s
Compound: O=O [Oxygen gas, oxygen]
